Experimental data taken from ChEMBL document CHEMBL3885881, “DrugMatrix”.

Species: Rattus norvegicus
Assay: DrugMatrix - Regimen: Daily Repeat
Format: toxicity, organism-based, Sprague-Dawley
Parameters: regimen Daily Repeat, gender Male, age 6-8 weeks
Settings: in vivo, po, route oral GAVAGE, […]; for ABSOLUTE BASOPHIL / ABSOLUTE EOSINOPHIL / ABSOLUTE LYMPHOCYTE / ABSOLUTE MONOCYTE / ABSOLUTE SEGMENTED NEUTROPHIL / BASOPHIL / EOSINOPHIL / ERYTHROCYTE COUNT / HEMATOCRIT / HEMOGLOBIN / LEUKOCYTE COUNT / LYMPHOCYTE / MEAN CORPUSCULAR HEMOGLOBIN / MEAN CORPUSCULAR HEMOGLOBIN CONCENTRATION / MEAN CORPUSCULAR VOLUME / MONOCYTE / NEUTROPHIL / NUCLEATED RED BLOOD CELLS / PLATELET COUNT: tissue Blood; for ALANINE AMINOTRANSFERASE / ALBUMIN / ALKALINE PHOSPHATASE / ASPARTATE AMINOTRANSFERASE / BLOOD UREA NITROGEN / CARBON DIOXIDE / CHLORIDE / CHOLESTEROL / CREATINE PHOSPHOKINASE / CREATININE / GLUCOSE / LACTATE DEHYDROGENASE / LIPASE / PHOSPHORUS / POTASSIUM / SODIUM / TOTAL BILIRUBIN / TOTAL PROTEIN / URIC ACID: tissue Plasma
[1] = 0 mg/kg, 72 h, dose level Control, time 3 day
[2] = 0 mg/kg, 120 h, dose level Control, time 5 day
[3] = 43 mg/kg, 72 h, dose level Low, time 3 day
[4] = 43 mg/kg, 120 h, dose level Low, time 5 day

## Clc1ccc(COC(Cn2ccnc2)c2ccc(Cl)cc2Cl)cc1 (configuration not stated) [ECONAZOLE]
[1]
  ABSOLUTE BASOPHIL: 0 CELLS/uL
  ABSOLUTE EOSINOPHIL: 0 CELLS/uL
  ABSOLUTE LYMPHOCYTE: 7601 CELLS/uL
  ABSOLUTE MONOCYTE: 354.33 CELLS/uL
  ABSOLUTE SEGMENTED NEUTROPHIL: 744.67 CELLS/uL
  BASOPHIL: 0%
  EOSINOPHIL: 0%
  ERYTHROCYTE COUNT: 5.03 x10E6/uL
  HEMATOCRIT: 33.7%
  HEMOGLOBIN: 13.43 G/DL
  LEUKOCYTE COUNT: 8.7 x10E3/uL
  LYMPHOCYTE: 86.33%
  MEAN CORPUSCULAR HEMOGLOBIN: 26.7 pg
  MEAN CORPUSCULAR HEMOGLOBIN CONCENTRATION: 39.83 G/DL
  MEAN CORPUSCULAR VOLUME: 67 fL
  MONOCYTE: 4.67%
  NEUTROPHIL: 9%
  NUCLEATED RED BLOOD CELLS: 0 /100WBC
  PLATELET COUNT: 1151 x10E3/uL
  ALANINE AMINOTRANSFERASE: 97.67 u/L
  ALBUMIN: 4.07 G/DL
  ALKALINE PHOSPHATASE: 607.67 u/L
  ASPARTATE AMINOTRANSFERASE: 101 u/L
  BLOOD UREA NITROGEN: 13.33 mg/dL
  CARBON DIOXIDE: 36 mmol/L
  CHLORIDE: 99.67 MEQ/L
  CHOLESTEROL: 75.67 mg/dL
  CREATINE PHOSPHOKINASE: 279.67 u/L
  CREATININE: 0.16 mg/dL
  GLUCOSE: 164 mg/dL
  LACTATE DEHYDROGENASE: 115 u/L
  LIPASE: 12.67 u/L
  PHOSPHORUS: 8.77 mg/dL
  POTASSIUM: 5.79 MEQ/L
  SODIUM: 142.83 MEQ/L
  TOTAL BILIRUBIN: 0.27 mg/dL
  TOTAL PROTEIN: 5.8 G/DL
  URIC ACID: 0.67 mg/dL
[2]
  ABSOLUTE BASOPHIL: 0 CELLS/uL
  ABSOLUTE EOSINOPHIL: 0 CELLS/uL
  ABSOLUTE LYMPHOCYTE: 4426.33 CELLS/uL
  ABSOLUTE MONOCYTE: 102.67 CELLS/uL
  ABSOLUTE SEGMENTED NEUTROPHIL: 337.67 CELLS/uL
  BASOPHIL: 0%
  EOSINOPHIL: 0%
  ERYTHROCYTE COUNT: 5.31 x10E6/uL
  HEMATOCRIT: 32.5%
  HEMOGLOBIN: 13.17 G/DL
  LEUKOCYTE COUNT: 4.87 x10E3/uL
  LYMPHOCYTE: 90.33%
  MEAN CORPUSCULAR HEMOGLOBIN: 24.93 pg
  MEAN CORPUSCULAR HEMOGLOBIN CONCENTRATION: 40.67 G/DL
  MEAN CORPUSCULAR VOLUME: 61.33 fL
  MONOCYTE: 2.33%
  NEUTROPHIL: 7.33%
  NUCLEATED RED BLOOD CELLS: 0.33 /100WBC
  PLATELET COUNT: 848.33 x10E3/uL
  ALANINE AMINOTRANSFERASE: 59.67 u/L
  ALBUMIN: 3.87 G/DL
  ALKALINE PHOSPHATASE: 452 u/L
  ASPARTATE AMINOTRANSFERASE: 81.33 u/L
  BLOOD UREA NITROGEN: 13.67 mg/dL
  CARBON DIOXIDE: 26.33 mmol/L
  CHLORIDE: 103.67 MEQ/L
  CHOLESTEROL: 65.67 mg/dL
  CREATINE PHOSPHOKINASE: 355.33 u/L
  CREATININE: 0.14 mg/dL
  GLUCOSE: 171.33 mg/dL
  LACTATE DEHYDROGENASE: 118 u/L
  LIPASE: 11.33 u/L
  PHOSPHORUS: 11.13 mg/dL
  POTASSIUM: 5.18 MEQ/L
  SODIUM: 143.17 MEQ/L
  TOTAL BILIRUBIN: 0.2 mg/dL
  TOTAL PROTEIN: 5.87 G/DL
  URIC ACID: 0.63 mg/dL
[3]
  ABSOLUTE BASOPHIL: 0 CELLS/uL
  ABSOLUTE EOSINOPHIL: 68.67 CELLS/uL
  ABSOLUTE LYMPHOCYTE: 8555.33 CELLS/uL
  ABSOLUTE MONOCYTE: 189.33 CELLS/uL
  ABSOLUTE SEGMENTED NEUTROPHIL: 653.33 CELLS/uL
  BASOPHIL: 0%
  EOSINOPHIL: 0.67%
  ERYTHROCYTE COUNT: 4.93 x10E6/uL
  HEMATOCRIT: 32.1%
  HEMOGLOBIN: 12.8 G/DL
  LEUKOCYTE COUNT: 9.47 x10E3/uL
  LYMPHOCYTE: 90.67%
  MEAN CORPUSCULAR HEMOGLOBIN: 25.97 pg
  MEAN CORPUSCULAR HEMOGLOBIN CONCENTRATION: 39.9 G/DL
  MEAN CORPUSCULAR VOLUME: 65.1 fL
  MONOCYTE: 2%
  NEUTROPHIL: 6.67%
  NUCLEATED RED BLOOD CELLS: 0 /100WBC
  PLATELET COUNT: 1050.67 x10E3/uL
  ALANINE AMINOTRANSFERASE: 100.33 u/L
  ALBUMIN: 3.8 G/DL
  ALKALINE PHOSPHATASE: 429 u/L
  ASPARTATE AMINOTRANSFERASE: 104.67 u/L
  BLOOD UREA NITROGEN: 11.33 mg/dL
  CARBON DIOXIDE: 37.67 mmol/L
  CHLORIDE: 107 MEQ/L
  CHOLESTEROL: 72.33 mg/dL
  CREATINE PHOSPHOKINASE: 331 u/L
  CREATININE: 0.19 mg/dL
  GLUCOSE: 156.67 mg/dL
  LACTATE DEHYDROGENASE: 94 u/L
  LIPASE: 10.33 u/L
  PHOSPHORUS: 9.27 mg/dL
  POTASSIUM: 5.1 MEQ/L
  SODIUM: 138.9 MEQ/L
  TOTAL BILIRUBIN: 0.13 mg/dL
  TOTAL PROTEIN: 5.6 G/DL
  URIC ACID: 0.57 mg/dL
[4]
  ABSOLUTE BASOPHIL: 0 CELLS/uL
  ABSOLUTE EOSINOPHIL: 31.33 CELLS/uL
  ABSOLUTE LYMPHOCYTE: 7327.67 CELLS/uL
  ABSOLUTE MONOCYTE: 294.67 CELLS/uL
  ABSOLUTE SEGMENTED NEUTROPHIL: 379.67 CELLS/uL
  BASOPHIL: 0%
  EOSINOPHIL: 0.33%
  ERYTHROCYTE COUNT: 5.33 x10E6/uL
  HEMATOCRIT: 33.3%
  HEMOGLOBIN: 13 G/DL
  LEUKOCYTE COUNT: 8.03 x10E3/uL
  LYMPHOCYTE: 91%
  MEAN CORPUSCULAR HEMOGLOBIN: 24.4 pg
  MEAN CORPUSCULAR HEMOGLOBIN CONCENTRATION: 39.07 G/DL
  MEAN CORPUSCULAR VOLUME: 62.47 fL
  MONOCYTE: 3.67%
  NEUTROPHIL: 5%
  NUCLEATED RED BLOOD CELLS: 0 /100WBC
  PLATELET COUNT: 1117.67 x10E3/uL
  ALANINE AMINOTRANSFERASE: 59 u/L
  ALBUMIN: 3.97 G/DL
  ALKALINE PHOSPHATASE: 377.67 u/L
  ASPARTATE AMINOTRANSFERASE: 79 u/L
  BLOOD UREA NITROGEN: 12.33 mg/dL
  CARBON DIOXIDE: 28.67 mmol/L
  CHLORIDE: 104.33 MEQ/L
  CHOLESTEROL: 71.33 mg/dL
  CREATINE PHOSPHOKINASE: 198.33 u/L
  CREATININE: 0.22 mg/dL
  GLUCOSE: 162 mg/dL
  LACTATE DEHYDROGENASE: 63 u/L
  LIPASE: 12.33 u/L
  PHOSPHORUS: 10.33 mg/dL
  POTASSIUM: 5.68 MEQ/L
  SODIUM: 144.73 MEQ/L
  TOTAL BILIRUBIN: 0.17 mg/dL
  TOTAL PROTEIN: 5.93 G/DL
  URIC ACID: 0.5 mg/dL
